Columns and labels:
[1] = system: Staphylococcus aureus (ATCC#14154); assay: Micro-broth dilution susceptibility testing (MIC/MBC); type: cell-based; conditions: for effect against Staphylococcus aureus (in words): ATCC#14154, grown in broth over 48 hours
Experimental: (§1) A micro-broth dilution technique was used to determine the susceptibility of the strains of Staphylococcus aureus. Susceptibility was expressed as minimum inhibitory (MIC) and/or minimum bactericidal (MBC) concentration.
(§2) Various essential oils, carvacrol, and monolaurin were tested alone or in combination for the treatment of Staphylococcus aureus infection. Twelve essential oils were tested in the study: oregano oil, olive oil (the diluent), pumpkin oil, fenugreek oil, myrtle oil, allspice oil, sage oil, lavender oil, bay leaf oil, cumin oil, cinnamon oil, and cassia oil.
(§3) The stock solutions of oregano oil, other essential oils, olive oil, and carvacrol were dissolved in 50% ethanol-Tween 80 solvents. Antibiotics were dissolved in 50% ethanol and used as positive controls. Solvent controls (addition of carrier without essential oil and monolaurin) were also included for reference in addition to regular controls.
(§4) The Sabouraud's glucose (S.g.) broth containing varying amounts (logarithmic, serially and 2-fold diluted) of oregano oil, other essential oils, carvacrol, monolaurin and various controls were inoculated with actively dividing Staphylococcus aureus cells. The cultures were incubated for about 24 hours and about 48 hours at a temperature of about 30° C. on a metabolic rotary shaker (220 rev/min), and the growth was monitored both visually and colorimetrically (at a wavelength of about […]). The minimum inhibitory concentration (MIC) was defined as the lowest concentration required to arrest the growth of the bacteria at the end of 24 hour of incubation. Minimum bactericidal concentration (MBC) was determined by sub-culturing a 0.01 ml aliquot of the medium drawn from the culture tubes after 48 hours on S.g. agar plates and incubated further for bacterial growth. The plates were scored for growth of the bacteria colonies. The lowest concentration of the antimicrobial agent causing negative growth (fewer than three colonies) was considered as MBC. In every case, the MIC and MBC were virtually the same.
A micro dilution study on Staphylococcus aureus (ATCC#14154) grown in broth over 48 hours was performed to determine the comparative effects of various antibiotics and essential oils against Staphylococcus aureus infection at the selected concentrations.

[2] = system: Staphylococcus aureus (ATCC#14775); assay: as above; type: cell-based; conditions: for killing of Staphylococcus aureus in vitro (summary): summary statement
Experimental: as §1, §2, §3, §4
The micro dilution study was performed with another strain of Staphylococcus aureus (ATCC#14775). Although the results from the two strains (ATCC#14775 and ATCC#14154) were generally similar, there were some minor differences. […] Oregano oil provided efficacy against the ATCC#14775 strain infections at the concentration as low as 0.25 mg oregano oil. Carvacrol provided efficacy against the ATCC#14775 strain infections at a phenol content equivalent to that in 0.5 mg oregano oil.
The in vitro experiment on Staphylococcus aureus (ATCC#14775) was performed to investigate the efficacy of using monolaurin alone, using monolaurin in combination with oregano oil, or using oregano oil alone.

[3] = system: Staphylococcus aureus (ATCC#14775); assay: Murine systemic bacteremia model, 30-day survival; type: in vivo, mice; conditions: for in vivo effect on survival (in words): mice infected with 5xLD50, daily gavage 30 days; for mice surviving for 30 days (survivors/group): second study, groups of eight, 3.2 mg of each agent by gavage, vancomycin 400 μg i.p.; for mice surviving thirty days (survivors/total): summary across the in vivo studies
Experimental: Female BALB/c mice (about 15 grams to 20 grams in weight) were obtained from Taconic Farms (Germantown, N.Y.). The mice were maintained in a controlled environment at about 24° C. with a 12-hour light and 12-hour dark cycle and were acclimatized in the animal facility for about 3-5 days before testing. The mice were housed in groups of five, fed commercial rodent pellets, and given water ad libitum throughout the experiments. The Animal Welfare Board at Georgetown University Medical Center approved the protocol for the entire investigation.
In two separate experiments, groups of mice (6 and 8 respectively) infected with Staphylococcus aureus (5×LD50) were gavaged daily with oregano oil, carvacrol, monolaurin or combined oregano oil-monolaurin in 0.2 ml of olive oil for 30 days. The amount of bacterial agents administered was calculated based on the body weight of the mice. Control mice received daily gavages of either olive oil alone (negative control) or olive oil orally plus vancomycin (400 mcg) i.p. (positive control).
In the first in vivo experiment, the daily dose of oregano oil was either 2.0 μl (1.6 mg) or 4.0 μl (3.2 mg). […] In the second in vivo study, the daily dose of oregano oil was the same as the higher dose used before, i.e., 4.0 μl (3.2 mg). Monolaurin was given at the same dose; and when both agents were combined, the same individual doses were used, i.e., 3.2 mg of each. Both experiments were terminated at the end of 30 days. The body weight, the disease status, and the overall health of the mice during the experiments were recorded. The pathological status of the mice was determined by visual examination of the internal organs after their death or sacrifice at the completion of the experiment. Culturing aliquots of kidney homogenates on S.g. agar plates were tested for the renal burden of Staphylococcus aureus.
Furthermore, the in vivo therapeutic effects of the natural edible oregano oil and one of its major constituents, carvacrol, were examined in a murine systemic bacteremia model. […] Groups of six mice infected with Staphylococcus aureus (ATCC#14775) (5×LD50) were gavaged with varying amounts of oregano oil (2.0 μl 1.6 mg; and 4.0 μl 3.2 mg) or injected i.p. with vancomycin (400 μg) daily for 30 days. […] Fifty percent of the mice (3/6) receiving oregano oil (3.2 mg) survived over the thirty days, while only one of six receiving 1.6 mg oregano oil survived for 30 days. Also, 50% of those receiving vancomycin (400 μg) survived for 30 days, while all in the control group died within a three-day period. […] In contrast, numerous abscesses were noted and renal cultures were positive in all dying mice.
In a separate in vivo study, the effects of using monolaurin, either alone and in combination with oregano oil, were investigated and compared to the effects of oregano oil alone. Groups of eight mice were infected with five times the LD50 (5×LD50) of Staphylococcus aureus (A TIC #14775). Fifty percent of the mice (4/8) injected daily with vancomycin (400 μg i.p.) survived for the thirty days of study in contrast to the control group where all eight mice died within a week's time. In the three test groups, 3/8 survived for 30 days in the oregano oil group (3.2 mg), 4/8 survived in the monolaurin group (3.2 mg), and 5/8 survived in the group receiving the combination of oregano oil (3.2 mg) and monolaurin (3.2 mg). No abscesses were seen on inspection, and no bacterial growth was found in the kidney tissue of the 30-day survivors.

[H]/N=C(/N)N[C@H]1[C@H](O)[C@@H](O)[C@H](O[C@@H]2O[C@@H](C)[C@](O)(C=O)[C@H]2O[C@@H]2O[C@@H](CO)[C@H](O)[C@@H](O)[C@@H]2NC)[C@@H](N/C(N)=N\[H])[C@@H]1O [Streptomycin, streptomycin]
effect against Staphylococcus aureus (in words) [1]: did not completely kill the bacteria

Cc1ccc(C(C)C)cc1O [carvacrol]
effective concentration, as comparable dose of oregano oil (phenol content) ([1]; ATCC#14154, carvacrol expressed as oregano oil equivalent): 0.5 mg
phenol content needed for the same efficacy as oregano oil ([1]; relative to one oregano oil dosage, strain not specified): twice the phenol content
effective phenol content, as equivalent amount of oregano oil ([2]; ATCC#14775, carvacrol expressed as oregano oil equivalent): 0.5 mg
killing of Staphylococcus aureus in vitro (summary) [2]: killed Staphylococcus aureus effectively in vitro
survival time (none survived beyond) ([3]; first experiment, twelve mice, two doses equivalent to phenol content in 1.6 mg and 3.2 mg oregano oil): ≤ 21 days
renal culture after death ([3]; first in vivo study, carvacrol at phenol-equivalent doses): Staphylococcus aureus was grown out of their kidneys
in vivo effect on survival (in words) [3]: prolonged survival
in vivo effect on survival (in words) ([3]; listed as Carvacrol): delayed death but could not cure the mice

CCCCCCCCCCCC(=O)OCC(O)CO (stereo not shown) [monolaurin, glycerol monolaurate]
growth after two days of incubation ([2]; ATCC#14775, 0.125 mg of each agent): A few Staphylococcus aureus (ATCC#14775) colonies grew
killing of Staphylococcus aureus in vitro (summary) [2]: killed Staphylococcus aureus effectively in vitro
in vivo effect on survival (in words) [3]: protective effect
mice surviving for 30 days (survivors/group) [3]: 4/8
mice surviving thirty days (survivors/total) [3]: 4/8

CN[C@H](CC(C)C)C(=O)N[C@H]1C(=O)N[C@@H](CC(N)=O)C(=O)N[C@H]2C(=O)N[C@H]3C(=O)N[C@H](C(=O)N[C@H](C(=O)O)c4cc(O)cc(O)c4-c4cc3ccc4O)[C@H](O)c3ccc(c(Cl)c3)Oc3cc2cc(c3O[C@@H]2O[C@H](CO)[C@@H](O)[C@H](O)[C@H]2O[C@H]2C[C@](C)(N)[C@H](O)[C@H](C)O2)Oc2ccc(cc2Cl)[C@H]1O [vancomycin]
effect against Staphylococcus aureus (in words) [1]: completely destroyed the bacteria
mice surviving for 30 days ([3]; first experiment, groups of six, 400 μg i.p. daily): 50%
mice surviving for 30 days (survivors/group) [3]: 4/8
mice surviving thirty days (survivors/total) [3]: 7/14

penicillin
effect against Staphylococcus aureus (in words) [1]: essentially showed no effect

— patent publication US11109607B2, “Oil-based compositions for enhancing oral health and general wellness in humans” (priority 2013, dated 2021)
